Data on 63 molecules can be found in patent publication US20260193236A1 (Protego Biopharma, Inc., priority 2022, published 2026).

Some results are limits rather than exact numbers.

The assay deals with IRE1-XBP1s (XBP1-RLuc splicing reporter in HEK293 T-REx cells). Put plainly: IRE1-XBP1s activation assay (XBP1-RLuc splicing reporter, HEK293 T-REx cells, luminescence relative to thapsigargin). In kind it is cell-based. To be noted: 18 h, compound 10 μM, HEK293 T-REx XBP1-RLuc reporter cells, relative to thapsigargin (Tg) 500 nM, read-out: Activity (IRE1-XBP1s activation, luminescence as % signal relative to thapsigargin, % Tg). Here is the method:
IRE1-XBP1s activation Assay: HEK293 T-REx cells stably expressing the XBP1-RLuc splicing reporter were treated with an IRE1-XBP1s activator provided herein (10 μM) in the presence or absence of the IRE1 active site inhibitor 4μ8C (32 μM) for 18 h. Luminescence was shown as the percentage signal relative to thapsigargin (Tg) (500 nM, 18 h).

As for `Cc1ccc(OCCN(C)C(=O)Cn2cc(NC(=O)CCOc3ncccc3[N+](=O)[O-])cn2)cc1` [Compound 113], the activation at 10 µM was more than 50%.
The same measure for `Cc1ccc(OCCN(C)C(=O)Cn2cc(NC(=O)CCOc3ncccc3N)cn2)cc1` [Compound 114]: more than 50%; for `Cc1ccc(OCCN(C)C(=O)Cn2cc(NC(=O)/C=C/Oc3c(Cl)ccnc3C)cn2)cc1` [Compound 115]: less than 30%; for `Cc1ccc(OCCN(C)C(=O)Cn2cc(NC(=O)CCOc3c(F)cc(C)cc3F)cn2)cc1` [Compound 116]: more than 50%.
The same measure for `Cc1ccc(OCCN(C)C(=O)Cn2cc(NC(=O)CCOc3cncnc3N)cn2)cc1` [Compound 117]: less than 30%.
Consider `Cc1ccc(OCCN(C)C(=O)Cn2cc(NC(=O)CCNc3cncc(N)c3)cn2)cc1` [Compound 119], for which the activation at 10 µM is less than 30%.
Turning to `COc1cc(NCCC(=O)Nc2cnn(CC(=O)N(C)CCOc3ccc(C)cc3)c2)ccn1` [Compound 120], the activation at 10 µM is more than 50%.
The same measure for `Cc1ccc(OCCN(C)C(=O)Cn2cc(NC(=O)CCNc3cnc(F)c(C)c3)cn2)cc1` [Compound 121]: more than 50%; for `Cc1ccc(OCCN(C)C(=O)Cn2cc(NC(=O)CCNc3cncc(N)n3)cn2)cc1` [Compound 122]: less than 30%; for `Cc1ccc(OCCN(C)C(=O)Cn2cc(NC(=O)CCNc3cc(C)nc(C)c3)cn2)cc1` [Compound 123, 3-((2,6-dimethylpyridin-4-yl)amino)-N-(1-(2-(methyl(2-(p-tolyloxy)ethyl)amino)-2-oxoethyl)-1H-pyrazol-4-yl)propanamide]: 30 to 50%.
The same measure for `COc1ccc(OCCN(C)C(=O)Cn2cc(NC(=O)CCNc3ccnc4ncnn34)cn2)cc1` [Compound 124]: 30 to 50%.
With `Cc1ccc(OCCN(C)C(=O)Cn2cc(NC(=O)CCNc3ncc(C#N)cn3)cn2)cc1` [Compound 125], the activation at 10 µM was less than 30%.
The same measure for `Cc1ccc(OCCN(C)C(=O)Cn2cc(NC(=O)CCNc3ccc(C)cn3)cn2)cc1` [Compound 126]: less than 30%; for `Cc1ccc(OCCN(C)C(=O)Cn2cc(NC(=O)CCNc3cnc(Cl)cn3)cn2)cc1` [Compound 127]: more than 50%.
Take `Cc1ccc(OCCN(C)C(=O)Cn2cc(NC(=O)CCNc3ccnc(C(F)(F)F)c3)cn2)cc1` [Compound 128]: the activation at 10 µM was less than 30%.
The same measure for `Cc1ccc(OCCN(C)C(=O)Cn2cc(NC(=O)CCNc3ccc(Cl)cn3)cn2)cc1` [Compound 129]: less than 30%.
Regarding `Cc1ccc(OCCN(C)C(=O)Cn2cc(NC(=O)CCNc3ncc(C(F)(F)F)cc3Cl)cn2)cc1` [Compound 130], the activation at 10 µM is less than 30%.
On to `Cc1ccc(OCCN(C)C(=O)Cn2cc(NC(=O)CCNc3ccnc(F)c3)cn2)cc1` [Compound 131], for which the activation at 10 µM is 30 to 50%.
`Cc1ccc(OCCN(C)C(=O)Cn2cc(NC(=O)CCNc3cccc(C#N)n3)cn2)cc1` [Compound 132]: the activation at 10 µM was more than 50%.
The same measure for `Cc1ccc(OCCN(C)C(=O)Cn2cc(NC(=O)CCNc3cc(C(F)(F)F)ccn3)cn2)cc1` [Compound 133]: more than 50%; for `Cc1ccc(OCCN(C)C(=O)Cn2cc(NC(=O)CCNc3nc(Cl)ns3)cn2)cc1` [Compound 134]: more than 50%; for `Cc1ccc(OCCN(C)C(=O)Cn2cc(NC(=O)CCNc3ccnc(Br)c3)cn2)cc1` [Compound 135]: 30 to 50%.
`Cc1ccc(OCCN(C)C(=O)Cn2cc(NC(=O)CCNc3ccnc(F)n3)cn2)cc1` [Compound 136]: the activation at 10 µM is 30 to 50%.
With `Cc1ccc(OCCN(C)C(=O)Cn2cc(NC(=O)CCNc3cc(C#N)ccn3)cn2)cc1` [Compound 137] the figure was less than 30%; with `Cc1ccc(OCCN(C)C(=O)Cn2cc(NC(=O)CCNc3ncccn3)cn2)cc1` [Compound 138], more than 50%.
As to `Cc1ccc(OCCN(C)C(=O)Cn2cc(NC(=O)CCNc3nccc(F)n3)cn2)cc1` [Compound 139], the activation at 10 µM is less than 30%.
The same measure for `Cc1ccc(OCCN(C)C(=O)Cn2cc(NC(=O)CCNc3ncc(Cl)cc3F)cn2)cc1` [Compound 140]: more than 50%; for `Cc1ccc(OCCN(C)C(=O)Cn2cc(NC(=O)CCNc3ncccc3C#N)cn2)cc1` [Compound 141]: less than 30%.
The same measure for `CCc1nccnc1NCCC(=O)Nc1cnn(CC(=O)N(C)CCOc2ccc(C)cc2)c1` [Compound 142]: 30 to 50%.
Take `Cc1ccc(OCCN(C)C(=O)Cn2cc(NC(=O)CCNc3cc(F)ncc3F)cn2)cc1` [Compound 143]: the activation at 10 µM is less than 30%.
With `Cc1ccc(OCCN(C)C(=O)Cn2cc(NC(=O)CCNc3cccc(F)n3)cn2)cc1` [Compound 144] the figure was more than 50%; with `Cc1ccc(OCCN(C)C(=O)Cn2cc(NC(=O)CCNc3cc(Cl)ccn3)cn2)cc1` [Compound 145], less than 30%.
For `Cc1ccc(OCCN(C)C(=O)Cn2cc(NC(=O)CCNc3ncccc3F)cn2)cc1` [Compound 146], the activation at 10 µM was in the range of 30 to 50%.
`Cc1ccc(OCCN(C)C(=O)Cn2cc(NC(=O)CCNc3nccnc3Cl)cn2)cc1` [Compound 147]: the activation at 10 µM was more than 50%.
With `Cc1ccc(OCCN(C)C(=O)Cn2cc(NC(=O)CCNc3ncccc3Cl)cn2)cc1` [Compound 148] the figure was 30 to 50%.
With `Cc1ccc(OCCN(C)C(=O)Cn2cc(NC(=O)CCNc3ccnc(Cl)c3)cn2)cc1` [Compound 149] the figure was more than 50%; with `Cc1ccc(OCCN(C)C(=O)Cn2cc(NC(=O)CCNc3c(F)cncc3Cl)cn2)cc1` [Compound 150], 30 to 50%; with `Cc1ccc(OCCN(C)C(=O)Cn2cc(NC(=O)CCNc3cncc(Cl)n3)cn2)cc1` [Compound 151], 30 to 50%.
With `Cc1ccc(OCCN(C)C(=O)Cn2cc(NC(=O)CCNc3c(Cl)cncc3Cl)cn2)cc1` [Compound 152] the figure was more than 50%; with `Cc1ccc(OCCN(C)C(=O)Cn2cc(NC(=O)CCNc3ccnc(N)c3)cn2)cc1` [Compound 153], less than 30%; with `Cc1ccc(OCCN(C)C(=O)Cn2cc(NC(=O)CCNc3cccc(N)n3)cn2)cc1` [Compound 154], more than 50%.
Turning to `Cc1ccc(OCCN(C)C(=O)Cn2cc(NC(=O)CCNc3ccncc3)cn2)cc1` [Compound 155], the activation at 10 µM was less than 30%.
The same measure for `Cc1ccc(OCCN(C)C(=O)Cn2cc(NC(=O)CCNc3cccc(Cl)n3)cn2)cc1` [Compound 156]: more than 50%.
The same measure for `Cc1ccc(OCCN(C)C(=O)Cn2cc(NC(=O)CCNc3ccc(C#N)cn3)cn2)cc1` [Compound 157]: less than 30%; for `Cc1ccc(OCCN(C)C(=O)Cn2cc(NC(=O)CCNc3ccnc(N)n3)cn2)cc1` [Compound 158]: less than 30%; for `Cc1ccc(OCCN(C)C(=O)Cn2cc(NC(=O)CCNc3nc(C)ccc3F)cn2)cc1` [Compound 159]: 30 to 50%.
Regarding `Cc1ccc(OCCN(C)C(=O)Cn2cc(NC(=O)CCNc3cccc(C)n3)cn2)cc1` [Compound 160], the activation at 10 µM lay in the range of 30 to 50%.
Consider `Cc1ccc(OCCN(C)C(=O)Cn2cc(NC(=O)CCNc3ncncc3C(C)C)cn2)cc1` [Compound 161], for which the activation at 10 µM was more than 50%.
As to `Cc1ccc(OCCN(C)C(=O)Cn2cc(NC(=O)C(CNc3ncc(F)cn3)CC(C)C)cn2)cc1` (stereo not drawn) [Compound 162], the activation at 10 µM is less than 30%.
`Cc1ccc(OCCN(C)C(=O)Cn2cc(NC(=O)C(O)CNc3ncc(F)cn3)cn2)cc1` (stereo not drawn) [Compound 163]: the activation at 10 µM is less than 30%.
With `Cc1ccc(OCCN(C)C(=O)Cn2cc(NC(=O)CCNc3ccnc(C)c3)cn2)cc1` [Compound 164, N-(1-(2-(methyl(2-(p-tolyloxy)ethyl)amino)-2-oxoethyl)-1H-pyrazol-4-yl)-3-((2-methylpyridin-4-yl)amino)propanamide] the figure was 30 to 50%.
The same measure for `Cc1ccc(OCCN(C)C(=O)Cn2cc(NC(=O)CCNc3ccc(OCc4ccccc4)cn3)cn2)cc1` [Compound 165]: less than 30%; for `COc1ccc(OCCN(C)C(=O)Cn2cc(NC(=O)CCNc3ccnc(C)c3)cn2)cc1` [Compound 166]: less than 30%; for `Cc1ccc(OCCN(C)C(=O)Cn2cc(NC(=O)C(CNc3ccc(F)nc3C)c3ccccc3)cn2)cc1` (stereo not drawn) [Compound 167]: less than 30%.
For `COc1ccc(OCCN(C)C(=O)Cn2cc(NC(=O)CCNc3cc(C)ncc3C)cn2)cc1` [Compound 168], the activation at 10 µM lay within 30 to 50%.
With `COc1ccc(OCCN(C)C(=O)Cn2cc(NC(=O)CCNc3ccnc(OC)c3)cn2)cc1` [Compound 169] the figure was more than 50%.
In the case of `Cc1ccc(OCCN(C)C(=O)Cn2cc(NC(=O)[C@H](C)CNc3ccc(F)nc3C)cn2)cc1` [Compound 170], the activation at 10 µM lay in the range of 30 to 50%.
With `Cc1ccc(OCCN(C)C(=O)Cn2cc(NC(=O)[C@@H](CNc3ccc(F)nc3C)C(C)C)cn2)cc1` [Compound 171] the figure was 30 to 50%; with `Cc1ccc(OCCN(C)C(=O)Cn2cc(NC(=O)[C@H](CNc3ccc(F)nc3C)C(C)C)cn2)cc1` [Compound 172], 30 to 50%; with `Cc1ccc(OCCN(C)C(=O)Cn2cc(NC(=O)CCNc3cc(C)ncc3C)cn2)cc1` [Compound 173], less than 30%.
With `Cc1ccc(OCCN(C)C(=O)Cn2cc(NC(=O)CCNc3cccnc3C)cn2)cc1` [Compound 174] the figure was 30 to 50%.
Regarding `COc1ccnc(NCCC(=O)Nc2cnn(CC(=O)N(C)CCOc3ccc(C)cc3)c2)c1` [Compound 175], the activation at 10 µM was 30 to 50%.
In the case of `Cc1ccc(OCCN(C)C(=O)Cn2cc(NC(=O)CCNc3ccc(C#N)nc3C)cn2)cc1` [Compound 176], the activation at 10 µM was less than 30%.
